Measurements reported in the supplement of paper PMC7224384.

Columns and labels:
MDA-MB-453 [1] = experiment: drug sensitivity score (DSS), in combination with BLU9931 (DSS (weighted AUC score)); higher = more sensitive (stronger viability decrease); extreme values may be limits of the assay; conditions: BLU9931 100 nM; 72 h
Summary of the method: (§1)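 Drug sensitivity scores come from a weighted area under a four-parameter logistic fit to percent viability, normalised per plate to control wells. Viability was based on cellular ATP read with CellTiterGlo 2.0 after 72 h at 37 °C, 5% CO2. Each 384-well plate carried FIMM Oncology set compounds in singlicate at five 10-fold dilutions, with 2000 MDA-MB-453 cells per well in medium with or without an FGFR4 inhibitor at 100 nM final.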

MDA-MB-453 [2] = experiment: drug sensitivity score (DSS), single agent (DSS (weighted AUC score)); higher = more sensitive (stronger viability decrease); extreme values may be limits of the assay; conditions: BLU9931 0 nM; 72 h
Summary of the method: as §1

Row | Structure (SMILES) | drug sensitivity score (MDA-MB-453 [1]) | drug sensitivity score (MDA-MB-453 [2])
1 | C[C@H]1Oc2cc(cnc2N)-c2c(nn(C)c2C#N)CN(C)C(=O)c2ccc(F)cc21 | 2.1 | 0
2 | O=C(Nc1c[nH]nc1-c1nc2ccc(CN3CCOCC3)cc2[nH]1)NC1CC1 [AT9283] | 2.3 | 2.3
3 | Nc1cc(COc2c(Cl)cc(C[C@H](N)C(=O)O)cc2Cl)c2oc(-c3ccccc3)nc2c1 [JPH203] | 1.4 | 3
4 | CCN(CC)CCN(Cc1ccc(-c2ccc(C(F)(F)F)cc2)cc1)C(=O)Cn1c(SCc2ccc(F)cc2)nc(=O)c2c1CCC2 [Darapladib] | 0 | 1.5
5 | Cn1c(Nc2ccc(C(F)(F)F)cc2)nc2cc(Oc3ccnc(-c4ncc(C(F)(F)F)[nH]4)c3)ccc21 [NVP-RAF265] | 1.1 | 1.7
6 | CCNC(=O)c1noc(-c2cc(C(C)C)c(O)cc2O)c1-c1ccc(CN2CCOCC2)cc1 [Luminespib] | 19.7 | 18.1
7 | CCNc1nc(Nc2cc(F)c(C(=O)N3CCOCC3)cc2OC)ncc1C(F)(F)F [GNE-7915] | 0 | 0
8 | Cn1cc(C2=C(c3cn(C4CCN(Cc5ccccn5)CC4)c4ccccc34)C(=O)NC2=O)c2ccccc21 [Enzastaurin] | 0 | 0
9 | O=C(CCCCCCC(=O)Nc1ccc([C@H]2O[C@@H](CSc3nc(-c4ccccc4)c(-c4ccccc4)o3)C[C@@H](c3ccc(CO)cc3)O2)cc1)NO [Tubacin] | 1.7 | 2
10 | CC[C@@H]1C(=O)N(C)c2cnc(Nc3ccc(C(=O)NC4CCN(C)CC4)cc3OC)nc2N1C1CCCC1 [BI 2536] | 9.2 | 10.4
11 | COc1ccc(S(=O)(=O)Nc2cccnc2Nc2ccc(O)cc2)cc1 [ABT-751] | 7.9 | 7.4
12 | Cn1ncnc1[C@H]1c2n[nH]c(=O)c3cc(F)cc(c23)N[C@@H]1c1ccc(F)cc1 [Talazoparib] | 3.1 | 1.7
13 | CNC(=O)c1ccc2cc([C@@]3(O)CCn4cncc43)ccc2c1 [Orteronel] | 0 | 0
14 | COc1c(OCCCN2CCOCC2)ccc2c1N=C(NC(=O)c1cnc(N)nc1)N1CCN=C21 [Copanlisib] | 23.4 | 22.4
15 | COc1ccc2[nH]cc(/C=C3\C(=O)Nc4ccc(NC(=O)CCN5CCCCC5)cc43)c2c1 | 4.8 | 6.1
16 | CN1CC[C@H](c2c(O)cc(O)c3c(=O)cc(-c4ccccc4Cl)oc23)[C@H](O)C1 [Alvocidib] | 16.2 | 14.5
17 | CCN(CC)CCOc1ccc(C(=C(Cl)c2ccccc2)c2ccccc2)cc1 [Clomifene] | 4 | 5.8
18 | CNC(=O)c1nn(C)c2c1C(C)(C)Cc1cnc(Nc3ccc(N4CCN(C)CC4)cc3)nc1-2 [Milciclib] | 7.5 | 8.3
19 | O=C(O)CC[C@H]1CC[C@@](c2cc(F)ccc2F)(S(=O)(=O)c2ccc(Cl)cc2)CC1 [MK-0752] | 0 | 0.1
20 | C[C@]12C=CC(=O)C=C1CC[C@@H]1[C@@H]2[C@@H](O)C[C@@]2(C)[C@H]1CC[C@]2(O)C(=O)CO [Prednisolone] | 0 | 8.2
21 | CO[C@H]1CC[C@H](N2C(=O)CNc3ncc(-c4ccc(C(C)(C)O)nc4)nc32)CC1 [CC-223] | 6 | 6.1
22 | C[C@@H](Oc1cc(-n2cnc3ccc(CN4CCN(C)CC4)cc32)sc1C(N)=O)c1ccccc1C(F)(F)F | 6.3 | 11.5
23 | Cc1cc([C@@H](C)Nc2ccccc2C(=O)O)c2nc(N3CCOCC3)cc(=O)n2c1 [AZD-6482] | 7.4 | 7.5
24 | CC(C)c1cc(C(=O)N2Cc3ccc(CN4CCN(C)CC4)cc3C2)c(O)cc1O [Onalespib] | 16.4 | 17
25 | C=CC(=O)N1CC/C(=C\c2ccc(F)c([N+](=O)[O-])c2)C(=O)/C(=C/c2ccc(F)c([N+](=O)[O-])c2)C1 [VLX1570] | 19.3 | 21.1
26 | S=c1[nH]cnc2nc[nH]c12 [Mercaptopurine] | 0.7 | 10.9
27 | CNC(=O)c1cc(Oc2ccc(NC(=O)Nc3ccc(Cl)c(C(F)(F)F)c3)cc2)ccn1 [Sorafenib] | 0 | 0

Row | Structure (SMILES) | drug sensitivity score (MDA-MB-453 [1]) | drug sensitivity score (MDA-MB-453 [2])
28 | N#CC[C@H](C1CCCC1)n1cc(-c2ncnc3[nH]ccc23)cn1 [Ruxolitinib] | 0 | 1.2
29 | CCCC(CCC)C(=O)O [Valproic acid] | 0.9 | 1.6
30 | Cc1nc(Nc2n[nH]c3c2CN(C(=O)N[C@H](CN(C)C)c2ccccc2)C3(C)C)c2sccc2n1 | 8.7 | 11.4
31 | CC[C@@H](C(=O)[C@@H](C)[C@@H](O)[C@H](C)[C@@H]1O[C@@H]([C@@H](CC)C(=O)O)CC[C@@H]1C)[C@H]1O[C@]2(C=C[C@@H](O)[C@]3(CC[C@@](C)([C@H]4CC[C@](O)(CC)[C@H](C)O4)O3)O2)[C@H](C)C[C@@H]1C [Salinomycin] | 3.2 | 6.8
32 | O=C(Nc1ccc2[nH]nc(-c3ccncc3)c2c1)[C@@H]1CCN(CC(=O)N2CCN(c3ccc(-c4ncccn4)cc3)CC2)C1 | 0 | 3.4
33 | c1cn2cc(-c3ccc4cn[nH]c4c3)nc(Nc3ccc(N4CCOCC4)cc3)c2n1 [Entospletinib] | 0 | 0
34 | CCCS(=O)(=O)Nc1ccc(F)c(C(=O)c2c[nH]c3ncc(-c4ccc(Cl)cc4)cc23)c1F [Vemurafenib] | 0 | 0
35 | CCN(c1cc(-c2ccc(CN3CCOCC3)cc2)cc(C(=O)NCc2c(C)cc(C)[nH]c2=O)c1C)C1CCOCC1 [Tazemetostat] | 0 | 2.1
36 | CCn1c(=O)c(-c2ccc(Cl)cc2Cl)cc2cnc(Nc3ccc(N4CCNCC4)c(F)c3)nc21 [FRAX486] | 1.1 | 3.9
37 | CO[C@@]12[C@H](COC(N)=O)C3=C(C(=O)C(C)=C(N)C3=O)N1C[C@@H]1N[C@@H]12 [Mitomycin C] | 0 | 0
38 | CN(C)Cc1ccc(S(=O)(=O)n2ccc(/C=C/C(=O)NO)c2)cc1 [Resminostat] | 16.2 | 16
39 | CC[C@]1(O)C[C@@H]2CN(CCc3c([nH]c4ccccc34)[C@@](C(=O)OC)(c3cc4c(cc3OC)N(C)[C@H]3[C@@](O)(C(=O)OC)[C@H](OC(C)=O)[C@]5(CC)C=CCN6CC[C@]43[C@@H]65)C2)C1 [Vinblastine] | 8.4 | 10
40 | Nc1nc2[nH]cnc2c(=S)[nH]1 [Thioguanine] | 5.9 | 10.4
41 | O=C(/C=C\n1cnc(-c2cc(C(F)(F)F)cc(C(F)(F)F)c2)n1)NNc1cnccn1 [Selinexor] | 9.5 | 9.6
42 | CC(C)(O)CNc1nc(Nc2ccnc(C(F)(F)F)c2)nc(-c2cccc(C(F)(F)F)n2)n1 [Enasidenib] | 0.1 | 0
43 | CO[C@@H](C)Cn1c(=O)n(C)c2cnc3ccc(-c4cncc(C(C)(C)O)c4)cc3c21 | 15.3 | 15.3
44 | CCN1CCN(Cc2ccc(Nc3ncc(F)c(-c4cc(F)c5nc(C)n(C(C)C)c5c4)n3)nc2)CC1 [Abemaciclib] | 7.8 | 4.1
45 | C[C@H]1C[C@@H](n2c(Nc3ccc(OC(F)(F)F)cc3)nc3cc(CCC(=O)O)ccc32)CC(C)(C)C1 | 0 | 0
46 | O=C(Nc1ccncc1)C(=O)c1cn(Cc2ccc(Cl)cc2)c2ccccc12 [Indibulin] | 5.3 | 9.1
47 | CN1C(=O)N[C@H](Cc2c[nH]c3c(Cl)cccc23)C1=O [Necrostatin 2] | 0 | 0
48 | CC[C@]12C=CCN3CC[C@@]4(c5cc([C@@]6(C(=O)OC)C[C@@H]7C[C@@H](C(C)(F)F)CN(Cc8c6[nH]c6ccccc86)C7)c(OC)cc5N(C)[C@H]4[C@@](O)(C(=O)OC)[C@@H]1OC(C)=O)[C@@H]32 [Vinflunine] | 1.3 | 2.6
49 | Cc1ccc(C(=O)Nc2ccc(Oc3cc4cnn(C)c4cc3-c3cn[nH]c3)c(F)c2)c(=O)n1-c1ccc(F)cc1 [Merestinib] | 0 | 0
50 | Cn1c(=O)n(-c2ccc(C(C)(C)C#N)cc2)c2c3cc(-c4cnc5ccccc5c4)ccc3ncc21 [Dactolisib] | 18.3 | 16.3
51 | CC(=O)c1c(C)c2cnc(Nc3ccc(N4CCNCC4)cn3)nc2n(C2CCCC2)c1=O [Palbociclib] | 4.8 | 2.5
52 | COc1cc([C@@H]2c3cc4c(cc3[C@@H](O[C@@H]3O[C@@H]5CO[C@@H](C)O[C@H]5[C@H](O)[C@H]3O)[C@H]3COC(=O)[C@H]23)OCO4)cc(OC)c1O [Etoposide] | 2.9 | 2.8
53 | O=C(O)C1(C(=O)O)CCC1.[NH2-].[NH2-].[Pt+2] [Carboplatin] | 2.6 | 2.2
54 | O=C(c1ccc(C(=O)N2CCC(N3CCCC3)CC2)c(Nc2ccccc2)c1)N1CCC(N2CCCC2)CC1 [UNC1215] | 0 | 0
